{"source": "ChEMBL document CHEMBL5226388", "about": "“Terpenoids from the Sponge Sarcotragus sp. Collected in the South China Sea” (J Nat Prod, 2023)", "key": {"K562": {"system": "K562", "assay": "Cytotoxicity against human K562 cells assessed as reduction in cell growth by MTT assay", "assay_type": "functional, cell-based"}, "ASPC1": {"system": "ASPC1", "assay": "Cytotoxicity against human ASPC1 cells assessed as reduction in cell growth by MTT assay", "assay_type": "functional, cell-based"}, "H69AR": {"system": "H69AR", "assay": "Cytotoxicity against human NCI-H69AR cells assessed as reduction in cell growth by MTT assay", "assay_type": "functional, cell-based"}, "[1]": {"assay": "Cytotoxicity against human L02 cells assessed as reduction in cell growth by MTT assay", "assay_type": "toxicity, cell-based"}, "MDA-MB-231": {"system": "MDA-MB-231", "assay": "Cytotoxicity against human MDA-MB-231 cells assessed as reduction in cell growth by MTT assay", "assay_type": "functional, cell-based"}}, "data": [{"smiles": "CC(C)=CCC[C@@]1(C)CCC=C2[C@@H]1CC[C@H](C)[C@]2(C)CCC1=CC(=O)OC1", "values": [{"measurement": "IC50", "setting": "K562", "value": "> 30", "unit": "µM"}, {"measurement": "IC50", "setting": "ASPC1", "value": "> 30", "unit": "µM"}, {"measurement": "IC50", "setting": "H69AR", "value": "> 30", "unit": "µM"}, {"measurement": "IC50", "setting": "[1]", "value": "> 30", "unit": "µM"}, {"measurement": "IC50", "setting": "MDA-MB-231", "value": "> 30", "unit": "µM"}]}, {"smiles": "CC(=O)O[C@H]1OC(=O)C=C1/C=C/[C@]1(C)C2=CC[C@H]3C(C)(C)CCC[C@]3(C)[C@H]2CC[C@@H]1C", "values": [{"measurement": "IC50", "setting": "K562", "value": 2.91, "unit": "µM"}, {"measurement": "IC50", "setting": "H69AR", "value": 14.9, "unit": "µM"}, {"measurement": "IC50", "setting": "[1]", "value": 6.8, "unit": "µM"}, {"measurement": "IC50", "setting": "MDA-MB-231", "value": 29, "unit": "µM"}]}, {"smiles": "C[C@@H]1CC[C@@H]2C(=CC[C@@H]3C(C)(C)CCC[C@@]23C)[C@]1(C)C[C@H](O)C1=CC(=O)OC1", "values": [{"measurement": "IC50", "setting": "K562", "value": "> 30", "unit": "µM"}, {"measurement": "IC50", "setting": "ASPC1", "value": "> 30", "unit": "µM"}, {"measurement": "IC50", "setting": "H69AR", "value": "> 30", "unit": "µM"}, {"measurement": "IC50", "setting": "[1]", "value": "> 30", "unit": "µM"}, {"measurement": "IC50", "setting": "MDA-MB-231", "value": "> 30", "unit": "µM"}]}, {"smiles": "C=C(C)CCCC1=CCC[C@H](C)[C@]1(C)CCC1=CC(=O)OC1O", "note": "(stereo partly drawn)", "values": [{"measurement": "IC50", "setting": "K562", "value": 15.1, "unit": "µM"}, {"measurement": "IC50", "setting": "ASPC1", "value": "> 30", "unit": "µM"}, {"measurement": "IC50", "setting": "H69AR", "value": 21.1, "unit": "µM"}, {"measurement": "IC50", "setting": "[1]", "value": 13.5, "unit": "µM"}, {"measurement": "IC50", "setting": "MDA-MB-231", "value": "> 30", "unit": "µM"}]}, {"smiles": "COc1cccc2c1C(=O)c1c(O)c3c(c(O)c1C2=O)C[C@@](O)(C(=O)CO)C[C@@H]3O[C@H]1C[C@H](N)[C@H](O)[C@H](C)O1", "note": "[DOXORUBICIN]", "values": [{"measurement": "IC50", "setting": "K562", "value": "< 1", "unit": "µM"}, {"measurement": "IC50", "setting": "ASPC1", "value": "< 1", "unit": "µM"}, {"measurement": "IC50", "setting": "H69AR", "value": "< 1", "unit": "µM"}, {"measurement": "IC50", "setting": "[1]", "value": "< 1", "unit": "µM"}, {"measurement": "IC50", "setting": "MDA-MB-231", "value": "< 1", "unit": "µM"}]}, {"smiles": "CC(=O)O[C@@H]1OC(=O)C=C1/C=C/[C@]1(C)C2=CC[C@H]3C(C)(C)CCC[C@]3(C)[C@H]2CC[C@@H]1C", "values": [{"measurement": "IC50", "setting": "K562", "value": 4.38, "unit": "µM"}, {"measurement": "IC50", "setting": "H69AR", "value": 16.3, "unit": "µM"}, {"measurement": "IC50", "setting": "[1]", "value": 7.21, "unit": "µM"}, {"measurement": "IC50", "setting": "MDA-MB-231", "value": 23.2, "unit": "µM"}]}, {"smiles": "CC(=O)O[C@@H]1C[C@@H]2[C@@]3(C)CCCC(C)(C)[C@@H]3CC[C@@]2(C)[C@@H]2C[C@@H](O)C3=C([C@H](O)OC3=O)[C@@]12C", "values": [{"measurement": "IC50", "setting": "K562", "value": 7.19, "unit": "µM"}, {"measurement": "IC50", "setting": "ASPC1", "value": 17.9, "unit": "µM"}, {"measurement": "IC50", "setting": "H69AR", "value": 27.5, "unit": "µM"}, {"measurement": "IC50", "setting": "[1]", "value": 24.1, "unit": "µM"}, {"measurement": "IC50", "setting": "MDA-MB-231", "value": "> 30", "unit": "µM"}]}, {"smiles": "C[C@@H]1CC[C@@H]2C(=CC[C@H]3C(C)(C)CCC[C@@]23C)[C@]1(C)C[C@@H](O)C1=CC(=O)OC1", "values": [{"measurement": "IC50", "setting": "K562", "value": 12.6, "unit": "µM"}, {"measurement": "IC50", "setting": "ASPC1", "value": "> 30", "unit": "µM"}, {"measurement": "IC50", "setting": "H69AR", "value": "> 30", "unit": "µM"}, {"measurement": "IC50", "setting": "[1]", "value": 11.6, "unit": "µM"}, {"measurement": "IC50", "setting": "MDA-MB-231", "value": "> 30", "unit": "µM"}]}, {"smiles": "CO[C@H](C[C@]1(C)C2=CC[C@H]3C(C)(C)CCC[C@]3(C)[C@H]2CC[C@@H]1C)C1=CC(=O)O[C@H]1O", "values": [{"measurement": "IC50", "setting": "K562", "value": 7.95, "unit": "µM"}, {"measurement": "IC50", "setting": "ASPC1", "value": 4.71, "unit": "µM"}, {"measurement": "IC50", "setting": "H69AR", "value": 5.67, "unit": "µM"}, {"measurement": "IC50", "setting": "[1]", "value": 4.62, "unit": "µM"}, {"measurement": "IC50", "setting": "MDA-MB-231", "value": 16, "unit": "µM"}]}, {"smiles": "C[C@H]1CC[C@H]2C(=CC[C@H]3C(C)(C)CCC[C@]23C)[C@@]1(C)/C=C/C1=CC(=O)OC1O", "note": "(stereo partly drawn)", "values": [{"measurement": "IC50", "setting": "K562", "value": 11.6, "unit": "µM"}, {"measurement": "IC50", "setting": "ASPC1", "value": 22.4, "unit": "µM"}, {"measurement": "IC50", "setting": "H69AR", "value": 25.7, "unit": "µM"}, {"measurement": "IC50", "setting": "[1]", "value": 13.5, "unit": "µM"}, {"measurement": "IC50", "setting": "MDA-MB-231", "value": "> 30", "unit": "µM"}]}, {"smiles": "CC1=CCC[C@@H](C)[C@@]1(C)CC/C(C)=C/CCC1=CC(=O)OC1", "values": [{"measurement": "IC50", "setting": "K562", "value": "> 30", "unit": "µM"}, {"measurement": "IC50", "setting": "ASPC1", "value": "> 30", "unit": "µM"}, {"measurement": "IC50", "setting": "H69AR", "value": "> 30", "unit": "µM"}, {"measurement": "IC50", "setting": "[1]", "value": "> 30", "unit": "µM"}, {"measurement": "IC50", "setting": "MDA-MB-231", "value": "> 30", "unit": "µM"}]}]}
